The text below walks through data of US20140065632A1, “MARKER GENE FOR DETECTION OF TUMOR PROMOTER, AND METHOD FOR DETECTION OF TUMOR PROMOTER” (priority 2007, published 2014).

Where two headings read alike, the source gives them in different places.

The test system of one series is Orm1. Kind of series: Quantitative RT-PCR of Orm1 gene expression in the BALB/c 3T3 cell transformation assay. In kind it is cell-based, mouse.
The next series deals with BALB/c 3T3 cells. Also noted: focus formation ability (intensity of the tumor-promoting activity): key to the marks not given beside the values.
Where [1] appears, read: Example 3, MCA-initiated BALB/c 3T3 cells, RNA 48 hours after addition of test substance, normalized by β-actin.

As for `CC(C)[C@@H]1CC[C@@H](C)C[C@H]1O` (racemic) [dl-menthol, DL-menthol], the “Expression level of Orm1 (rates relative to the negative control)” value with Orm1 (setting [1]) was determined as 0.9. Further, in the series on BALB/c 3T3 cells, the “Focus formation in the BALB/c 3T3 cell transformation assay” value was “−” and the “ability to form foci in the BALB/c 3T3 cell transformation assay” value is reported as “unable to form foci”.

Regarding `O=[N+]([O-])c1cccc2ccccc12` [1-nitronaphthalene], in the series with BALB/c 3T3 cells, the “Focus formation in the BALB/c 3T3 cell transformation assay” value is “−” and the “ability to form foci in the BALB/c 3T3 cell transformation assay” value is listed as “unable to form foci”.

As to `c1ccc2cc3c(ccc4ccccc43)cc2c1` [Benz[a]anthracen, benz[a]anthracene], in the series on BALB/c 3T3 cells, the “Focus formation in the BALB/c 3T3 cell transformation assay” value is recorded as “−” and the “ability to form foci in the BALB/c 3T3 cell transformation assay” value is reported as “unable to form foci”.

Consider `c1ccc2c(c1)ccc1c3ccccc3ccc21` [Chrysene, chrysene], for which, in the series on BALB/c 3T3 cells, the “Focus formation in the BALB/c 3T3 cell transformation assay” value is “−” and the “ability to form foci in the BALB/c 3T3 cell transformation assay” value is “unable to form foci”. The “ability to form foci in the Bhas cellular transformation assay” value in the series with Bhas cells is on record as “able to form foci”.

For `OC[C@@H](O)[C@@H](O)[C@H](O)[C@H](O)CO` [D-mannitol], in the series with BALB/c 3T3 cells, the “Focus formation in the BALB/c 3T3 cell transformation assay” value is given as “−” and the “ability to form foci in the BALB/c 3T3 cell transformation assay” value was “unable to form foci”.

On to `C[C@H](CCC(=O)O)[C@H]1CC[C@H]2[C@@H]3CC[C@@H]4C[C@H](O)CC[C@]4(C)[C@H]3CC[C@]12C` [Lithocholic acid, lithocholic acid], for which, in the series on BALB/c 3T3 cells, the “Focus formation in the BALB/c 3T3 cell transformation assay” value is listed as “+” and the “ability to form foci in the BALB/c 3T3 cell transformation assay” value was “able to form foci”. Moreover, in the series on Bhas cells, the “ability to form foci in the Bhas cellular transformation assay” value was “able to form foci”.

On to `C=C(C)[C@@]12O[C@@]3(c4ccccc4)O[C@@H]1[C@@H]1[C@@H]4O[C@]4(CO)[C@@H](O)[C@]4(O)C(=O)C(C)=C[C@H]4[C@@]1(O3)[C@H](C)[C@H]2OC(=O)/C=C/C=C/c1ccccc1` [Mezerein, mezerein], for which the “Expression level of Orm1 (rates relative to the negative control)” value in the series on Orm1 is on record as 2.6. For the same compound, in the series with BALB/c 3T3 cells, the “Focus formation in the BALB/c 3T3 cell transformation assay” value was “+”, the “ability to form foci in the BALB/c 3T3 cell transformation assay” value was “able to form foci” and the “focus formation ability (intensity of the tumor-promoting activity)” value (“focus formation ability” below) is recorded as “+++”. Moreover, the “ability to form foci in the Bhas cellular transformation assay” value with Bhas cells is “able to form foci”.

`C=C1[C@@H](O)[C@@H]2O[C@]3(CC[C@H](/C=C/[C@@H](C)[C@@H]4CC(C)=C[C@@]5(O[C@H](C[C@@](C)(O)C(=O)O)CC[C@H]5O)O4)O3)CC[C@H]2O[C@@H]1[C@@H](O)C[C@H](C)[C@H]1O[C@@]2(CCCCO2)CC[C@H]1C` [Okadaic acid, okadaic acid]: in the series on BALB/c 3T3 cells, the “Focus formation in the BALB/c 3T3 cell transformation assay” value is listed as “+”, the “ability to form foci in the BALB/c 3T3 cell transformation assay” value is reported as “able to form foci” and the “focus formation ability” value is reported as “+++”.

As to `c1cc2cccc3c4cccc5cccc(c(c1)c23)c54` [Perylene, perylene], in the series on BALB/c 3T3 cells, the “Focus formation in the BALB/c 3T3 cell transformation assay” value is listed as “−” and the “ability to form foci in the BALB/c 3T3 cell transformation assay” value is reported as “unable to form foci”. Further, the “ability to form foci in the Bhas cellular transformation assay” value with Bhas cells was “able to form foci”.

For the compound `CCC1(c2ccccc2)C(=O)NC(=O)NC1=O` [Phenobarbital sodium, phenobarbital sodium], in the series with BALB/c 3T3 cells, the “Focus formation in the BALB/c 3T3 cell transformation assay” value was “+”, the “ability to form foci in the BALB/c 3T3 cell transformation assay” value was “able to form foci” and the “focus formation ability” value is on record as “++”.

In the case of `O=C1NS(=O)(=O)c2ccccc21.[Na]` [Saccharin sodium, saccharin sodium], in the series on BALB/c 3T3 cells, the “Focus formation in the BALB/c 3T3 cell transformation assay” value is recorded as “+”, the “ability to form foci in the BALB/c 3T3 cell transformation assay” value is on record as “able to form foci” and the “focus formation ability” value was “++”.

In the case of `O=[As]O` [Sodium arsenite, sodium arsenite], in the series with BALB/c 3T3 cells, the “Focus formation in the BALB/c 3T3 cell transformation assay” value was “+”, the “ability to form foci in the BALB/c 3T3 cell transformation assay” value is “able to form foci” and the “focus formation ability” value is reported as “++”.

For `O=C1O[C@H]([C@@H](O)CO)C([O-])=C1O.[Na+]` [Sodium ascorbate, sodium ascorbate], in the series on BALB/c 3T3 cells, the “Focus formation in the BALB/c 3T3 cell transformation assay” value is “−” and the “ability to form foci in the BALB/c 3T3 cell transformation assay” value is listed as “unable to form foci”.

As for `[Na+].[Na+].[Na+].[O]=[V]([O-])([O-])[O-]` [Sodium orthovanadate, sodium orthovanadate], the “Expression level of Orm1 (rates relative to the negative control)” value in the series with Orm1 was 1.5. Further, in the series with BALB/c 3T3 cells, the “Focus formation in the BALB/c 3T3 cell transformation assay” value was “+”, the “ability to form foci in the BALB/c 3T3 cell transformation assay” value is “able to form foci” and the “focus formation ability” value is recorded as “+++”.

As to `CC(C)(C)c1cc(O)ccc1O` [TBHQ, tert-butylhydroquinone], in the series on BALB/c 3T3 cells, the “Focus formation in the BALB/c 3T3 cell transformation assay” value is “−” and the “ability to form foci in the BALB/c 3T3 cell transformation assay” value is reported as “unable to form foci”. The “ability to form foci in the Bhas cellular transformation assay” value with Bhas cells is reported as “able to form foci”.

For `CCCCCCCCCCCCCC(=O)O[C@@H]1[C@@H](C)[C@@]2(O)[C@@H](C=C(CO)C[C@]3(O)C(=O)C(C)=C[C@@H]23)[C@@H]2C(C)(C)[C@]12OC(C)=O` [TPA, phorbol 12-myristate 13-acetate], the “Expression level of Orm1 (rates relative to the negative control)” value with Orm1 came out at 2.3. Besides, in the series with BALB/c 3T3 cells, the “Focus formation in the BALB/c 3T3 cell transformation assay” value is on record as “+”, the “ability to form foci in the BALB/c 3T3 cell transformation assay” value is reported as “able to form foci”, the “focus formation ability” value is on record as “+++” and the “focus formation in the BALB/c 3T3 cell transformation assay” value is “Significant focus formation was observed”. In addition, the “ability to form foci in the Bhas cellular transformation assay” value in the series on Bhas cells is listed as “able to form foci”.

Regarding `[Cl-].[Cl-].[Zn+2]` [Zinc chloride, zinc chloride], the “Expression level of Orm1 (rates relative to the negative control)” value in the series with Orm1 turned out to be 3.4. In addition, in the series with BALB/c 3T3 cells, the “Focus formation in the BALB/c 3T3 cell transformation assay” value was “+”, the “ability to form foci in the BALB/c 3T3 cell transformation assay” value was “able to form foci”, the “focus formation ability” value is given as “+++” and the “focus formation in the BALB/c 3T3 cell transformation assay” value is “Significant focus formation was observed”. Further, in the series on Bhas cells, the “ability to form foci in the Bhas cellular transformation assay” value is on record as “able to form foci”.

On to `COc1ccc(O)c(C(C)(C)C)c1` [butylhydroxyanisol], for which the “focus formation ability” value in the series on BALB/c 3T3 cells is on record as “++”.

For insulin, the “Expression level of Orm1 (rates relative to the negative control)” value with Orm1 (setting [1]) is 2.0. Moreover, in the series on BALB/c 3T3 cells, the “Focus formation in the BALB/c 3T3 cell transformation assay” value is given as “+”, the “ability to form foci in the BALB/c 3T3 cell transformation assay” value was “able to form foci” and the “focus formation ability” value was “++”. Besides, the “ability to form foci in the Bhas cellular transformation assay” value in the series on Bhas cells is “able to form foci”.
